# Results taken from US10035819B2, “PPAR agonists and methods of use thereof” (The Salk Institute for Biological Studies, priority 2014, dated 2018).
# Where two headings read alike, the source gives them in different places.
# Columns and labels:
# Human PPARδ LBD = target: T1, Human PPARδ LBD (Homo sapiens, UniProt Q03181); assay: PPARδ activity screen (GAL4-PPARδ LBD luciferase transactivation in CV-1 cells); assay type: cell-based
# T1 construct: (PPARδ amino acid 128 to C-terminus); expressed in transfected cells; host or cells: CV-1 cells
# T1 sequence (Q03181 128-441 limits assumed): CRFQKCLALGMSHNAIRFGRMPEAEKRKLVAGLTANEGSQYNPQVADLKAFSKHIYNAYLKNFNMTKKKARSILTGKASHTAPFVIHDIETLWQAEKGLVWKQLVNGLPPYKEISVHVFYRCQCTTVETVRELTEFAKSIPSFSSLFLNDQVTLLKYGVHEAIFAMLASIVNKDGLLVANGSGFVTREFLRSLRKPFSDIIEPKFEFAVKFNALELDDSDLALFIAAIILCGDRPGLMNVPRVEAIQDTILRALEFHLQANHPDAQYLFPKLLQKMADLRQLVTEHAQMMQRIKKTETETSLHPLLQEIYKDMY
# Description: Cell Culture and Transfection: CV-1 cells were grown in DMEM+10% charcoal stripped FCS. Cells were seeded into 384-well plates the day before transfection to give a confluency of 50-80% at transfection. A total of […] containing 0.64 micrograms pCMX-PPARDelta LBD, 0.1 micrograms pCMXβGal, 0.08 micrograms pGLMH2004 reporter and 0.02 micrograms pCMX empty vector was transfected per well using FuGene transfection reagent according to the manufacturer's instructions (Roche).
# Plasmids: Human PPARδ was used to PCR amplify the PPARδ LBD. […] Ensuing fusions were verified by sequencing.
# Compounds: All compounds were dissolved in DMSO and diluted 1:1000 upon addition to the cells. Compounds were tested in quadruple in concentrations ranging from 0.001 to 100 μM. […] Each compound was tested in at least two separate experiments.
# Luciferase assay: Medium including test compound was aspirated and washed with PBS. 50 μl PBS including 1 mM Mg++ and Ca++ were then added to each well. The luciferase assay was performed using the LucLite kit according to the manufacturer's instructions (Packard Instruments). Light emission was quantified by counting on a Perkin Elmer Envision reader. […] Beta-galactosidase assays were performed in the microwell plates using a kit from Promega and read in a Perkin Elmer Envision reader. The beta-galactosidase data were used to normalize (transfection efficiency, cell growth etc.) the luciferase data.
# Statistical Methods: The activity of a compound is calculated as fold induction compared to an untreated sample. […] EC50 values were calculated via non-linear regression using GraphPad PRISM (GraphPad Software, San Diego, Calif.).
# PPARδ = target: T2, PPARδ (Homo sapiens, UniProt Q03181); assay: Nuclear Hormone Receptor (NHR) protein interaction assay (PathHunter), agonist format; assay type: cell-based
# T2 construct: expressed in transfected cells; host or cells: PathHunter NHR cell lines
# T2 sequence (Q03181 1-441): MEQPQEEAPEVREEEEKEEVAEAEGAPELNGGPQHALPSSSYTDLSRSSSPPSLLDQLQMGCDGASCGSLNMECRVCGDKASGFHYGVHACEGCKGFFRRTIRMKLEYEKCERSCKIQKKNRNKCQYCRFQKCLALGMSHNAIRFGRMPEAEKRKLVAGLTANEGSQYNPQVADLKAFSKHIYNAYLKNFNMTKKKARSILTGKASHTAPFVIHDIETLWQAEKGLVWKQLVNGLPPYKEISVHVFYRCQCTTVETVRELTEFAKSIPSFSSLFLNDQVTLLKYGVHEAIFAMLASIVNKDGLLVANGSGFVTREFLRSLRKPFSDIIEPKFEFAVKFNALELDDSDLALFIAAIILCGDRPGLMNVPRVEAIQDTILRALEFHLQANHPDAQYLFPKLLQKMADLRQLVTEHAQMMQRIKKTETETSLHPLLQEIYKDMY
# Description: • Cell Handling: PathHunter NHR cell lines were expanded from freezer stocks according to standard procedures. Cells were seeded in a total volume of 20 μL into white walled, 384-well microplates and incubated at 37° C. for the appropriate time prior to testing. Assay media contained charcoal-dextran filtered serum to reduce the level of hormones present. • Agonist Format: For agonist determination, cells were incubated with sample to induce response. Intermediate dilution of sample stocks was performed to generate 5× sample in assay buffer. 5 μL of 5× sample was added to cells and incubated at 37° C. or room temperature for 3-16 hours. Final assay vehicle concentration was 1%. • Antagonist Format: For antagonist determination, cells were pre-incubated with antagonist followed by agonist challenge at the EC80 concentration. Intermediate dilution of sample stocks was performed to generate 5× sample in assay buffer. 5 μL of 5× sample was added to cells and incubated at 37° C. or room temperature for 60 minutes. Vehicle concentration was 1%. […] Microplates were read following signal generation with a PerkinElmer Envision™ instrument for chemiluminescent signal detection. • Data Analysis: Compound activity was analyzed using CBIS data analysis suite (ChemInnovation, CA). For agonist mode assays, percentage activity was calculated using the following formula: % Activity=100%×(mean RLU of test sample−mean RLU of vehicle control)/(mean MAX control ligand−mean RLU of vehicle control).
# For antagonist mode assays, percentage inhibition was calculated using the following formula: % Inhibition=100%×(1−(mean RLU of test sample−mean RLU of vehicle control)/(mean RLU of EC80 control−mean RLU of vehicle control)). Note that for select assays, the ligand response produces a decrease in receptor activity (inverse agonist with a constitutively active target). For those assays inverse agonist activity was calculated using the following formula: % Inverse Agonist Activity=100%×((mean RLU of vehicle control−mean RLU of test sample)/(mean RLU of vehicle control−mean RLU of MAX control)).
# [1] = EC50 nM, Table 1, CV-1 cells, GAL4-PPARδ LBD luciferase reporter, compound 24 h
# [2] = Table 1, CV-1 cells, GAL4-PPARδ LBD luciferase reporter, compound 24 h, read-out: EC50
Compound,EC50 (Human PPARδ LBD; [1]) [nM],also measured
CC(C)N(Cc1ccccc1OCCCCCC(=O)O)C(=O)c1ccc(-c2ccccc2)cc1 [compound 1],42,–
O=C(O)CCCCCOc1ccccc1CN(C(=O)c1ccc(-c2ccccc2)cc1)C1CC1 [compound 8],115,–
O=C(O)CCCCCOc1ccccc1CN(C(=O)c1ccc(-c2cccnc2)cc1)C1CC1 [compound 9],–,EC50 (Human PPARδ LBD; [2]): 1960 nM
O=C(O)CCCCCOc1ccccc1CN(C(=O)c1ccc(-c2cn[nH]c2)cc1)C1CC1 [compound 11],–,EC50 (Human PPARδ LBD; [2]): 2120 nM
O=C(O)CCCCCOc1ccccc1CN(C(=O)c1ccc(-c2ccoc2)cc1)C1CC1 [compound 13],–,EC50 (Human PPARδ LBD; [2]): 215 nM
O=C(O)CCCCCOc1ccccc1CN(C(=O)c1ccc(-c2cccs2)cc1)C1CC1 [compound 14],1800,–
O=C(O)CCCCCOc1ccccc1CN(C(=O)c1ccc(-c2ccsc2)cc1)C1CC1 [compound 15],–,EC50 (Human PPARδ LBD; [2]): 58.4 nM
CCC(C)N(Cc1ccccc1OCCCCCC(=O)O)C(=O)c1ccc(Br)cc1 (centres unmarked) [compound 32],611,–
CCC(C)N(Cc1ccccc1OCCCCCC(=O)O)C(=O)c1ccc(-c2ccccc2)cc1 (centres unmarked) [compound 33],954,–
CCC(C)N(Cc1ccccc1OCCCCCC(=O)O)C(=O)c1ccc(-c2cccnc2)cc1 (centres unmarked) [compound 34],5140,–
CCC(C)N(Cc1ccccc1OCCCCCC(=O)O)C(=O)c1ccc(-c2ccncc2)cc1 (centres unmarked) [compound 35],6400,–
CCC(C)N(Cc1ccccc1OCCCCCC(=O)O)C(=O)c1ccc(-c2cn[nH]c2)cc1 (centres unmarked) [compound 36],15400,–
CCC(C)N(Cc1ccccc1OCCCCCC(=O)O)C(=O)c1ccc(-c2ccco2)cc1 (centres unmarked) [compound 37],41,"EC50 (Human PPARδ LBD; PPARd, EC50 (nM) (from Salk), Table 15): 41 nM; EC50 (PPARδ): 17.5 nM"
CCC(C)N(Cc1ccccc1OCCCCCC(=O)O)C(=O)c1ccc(-c2ccoc2)cc1 (centres unmarked) [compound 38],290,–
CCC(C)N(Cc1ccccc1OCCCCCC(=O)O)C(=O)c1ccc(-c2cccs2)cc1 (centres unmarked) [compound 39],2100,–
CCC(C)N(Cc1ccccc1OCCCCCC(=O)O)C(=O)c1ccc(-c2ccsc2)cc1 (centres unmarked) [compound 40],179,–
CC(C)N(Cc1ccccc1OCCCCCC(=O)O)C(=O)c1ccc(-c2cccnc2)cc1 [compound 58],1240,–
CC(C)N(Cc1ccccc1OCCCCCC(=O)O)C(=O)c1ccc(-c2ccncc2)cc1 [compound 59],–,EC50 (Human PPARδ LBD; [2]): 2860 nM
CC(C)N(Cc1ccccc1OCCCCCC(=O)O)C(=O)c1ccc(-c2cn[nH]c2)cc1 [compound 60],–,EC50 (Human PPARδ LBD; [2]): 710 nM
CC(C)N(Cc1ccccc1OCCCCCC(=O)O)C(=O)c1ccc(-c2cccs2)cc1 [compound 63],–,EC50 (PPARδ): 8.4 nM
O=C(O)CCCCCOc1ccccc1CN(C(=O)c1ccc(-c2ccccc2)cc1)C1CCCC1 [compound 65],405,–
O=C(O)CCCCCOc1ccccc1CN(C(=O)c1ccc(-c2cccnc2)cc1)C1CCCC1 [compound 66],–,EC50 (Human PPARδ LBD; [2]): 786 nM
O=C(O)CCCCCOc1ccccc1CN(C(=O)c1ccc(-c2ccncc2)cc1)C1CCCC1 [compound 67],–,EC50 (Human PPARδ LBD; [2]): 1490 nM

Compound,EC50 (Human PPARδ LBD; [1]) [nM],also measured
O=C(O)CCCCCOc1ccccc1CN(C(=O)c1ccc(-c2cn[nH]c2)cc1)C1CCCC1 [compound 68],–,EC50 (Human PPARδ LBD; [2]): 605 nM
O=C(O)CCCCCOc1ccccc1CN(C(=O)c1ccc(-c2ccco2)cc1)C1CCCC1 [compound 69],–,EC50 (Human PPARδ LBD; [2]): 51.4 nM
O=C(O)CCCCCOc1ccccc1CN(C(=O)c1ccc(-c2ccoc2)cc1)C1CCCC1 [compound 70],–,EC50 (Human PPARδ LBD; [2]): 127 nM
O=C(O)CCCCCOc1ccccc1CN(C(=O)c1ccc(-c2cccs2)cc1)C1CCCC1 [compound 71],–,EC50 (Human PPARδ LBD; [2]): 753 nM
O=C(O)CCCCCOc1ccccc1CN(C(=O)c1ccc(-c2ccsc2)cc1)C1CCCC1 [compound 72],–,EC50 (Human PPARδ LBD; [2]): 29.3 nM
Cc1ccccc1-c1ccc(C(=O)N(Cc2ccccc2OCCCCCC(=O)O)C2CC2)cc1 [compound 75],1190,–
Cc1cccc(-c2ccc(C(=O)N(Cc3ccccc3OCCCCCC(=O)O)C3CC3)cc2)c1 [compound 76],318,–
Cc1ccc(-c2ccc(C(=O)N(Cc3ccccc3OCCCCCC(=O)O)C3CC3)cc2)cc1 [compound 77],372,–
COc1ccccc1-c1ccc(C(=O)N(Cc2ccccc2OCCCCCC(=O)O)C2CC2)cc1 [compound 78],1870,–
COc1cccc(-c2ccc(C(=O)N(Cc3ccccc3OCCCCCC(=O)O)C3CC3)cc2)c1 [compound 79],301,–
COc1ccc(-c2ccc(C(=O)N(Cc3ccccc3OCCCCCC(=O)O)C3CC3)cc2)cc1 [compound 80],439,–
O=C(O)CCCCCOc1ccccc1CN(C(=O)c1ccc(-c2ccccc2F)cc1)C1CC1 [compound 81],597,–
O=C(O)CCCCCOc1ccccc1CN(C(=O)c1ccc(-c2cccc(F)c2)cc1)C1CC1 [compound 82],150,–
O=C(O)CCCCCOc1ccccc1CN(C(=O)c1ccc(-c2ccc(F)cc2)cc1)C1CC1 [compound 83],364,–
CCc1ccccc1-c1ccc(C(=O)N(Cc2ccccc2OCCCCCC(=O)O)C2CC2)cc1 [compound 84],2500,–
Cc1cccc(-c2ccc(C(=O)N(Cc3ccccc3OCCCCCC(=O)O)C3CC3)cc2)c1C [compound 86],1300,–
Cc1ccc(C)c(-c2ccc(C(=O)N(Cc3ccccc3OCCCCCC(=O)O)C3CC3)cc2)c1 [compound 87],1150,–
Cc1cc(C)cc(-c2ccc(C(=O)N(Cc3ccccc3OCCCCCC(=O)O)C3CC3)cc2)c1 [compound 89],1760,–
O=C(O)CCCCCOc1ccccc1CN(C(=O)c1ccc(-c2ccccc2C(F)(F)F)cc1)C1CC1 [compound 90],1300,–
O=C(O)CCCCCOc1ccccc1CN(C(=O)c1ccc(-c2cccc(C(F)(F)F)c2)cc1)C1CC1 [compound 91],1150,–
O=C(O)CCCCCOc1ccccc1CN(C(=O)c1ccc(-c2ccc(C(F)(F)F)cc2)cc1)C1CC1 [compound 92],1760,–
CCCc1ccc(-c2ccc(C(=O)N(Cc3ccccc3OCCCCCC(=O)O)C3CC3)cc2)cc1 [compound 93],1340,–
